Data as given in ChEMBL document CHEMBL1268924, “Design, solid-phase synthesis, and biological evaluation of novel 1,5-diarylpyrrole-3-carboxamides as carbonic anhydrase IX inhibitors” (Bioorg Med Chem, 2010).

These molecules were tested against Carbonic anhydrase 1 (Homo sapiens, UniProt P00915) (assay: Inhibition of human carbonic anhydrase 1 by stopped flow CO2 hydration assay).
Chain of Carbonic anhydrase 1 (P00915 whole entry): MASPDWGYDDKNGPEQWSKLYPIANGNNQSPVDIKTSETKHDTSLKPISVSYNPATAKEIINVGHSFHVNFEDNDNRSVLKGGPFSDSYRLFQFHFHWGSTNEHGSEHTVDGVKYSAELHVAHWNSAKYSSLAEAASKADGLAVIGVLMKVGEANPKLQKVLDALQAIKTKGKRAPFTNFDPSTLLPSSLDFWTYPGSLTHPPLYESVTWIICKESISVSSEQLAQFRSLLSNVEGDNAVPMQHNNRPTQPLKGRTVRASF

Ki [nM] | SMILES
> 10000 | Cc1c(C(=O)N2CCN(C)CC2)cc(-c2ccc3ccccc3c2)n1-c1ccc(S(N)(=O)=O)cc1

What follows are molecules tested against Carbonic anhydrase 9 (Homo sapiens, UniProt Q16790) (assay: Inhibition of human carbonic anhydrase 9 by stopped flow CO2 hydration assay).

Ki [nM] | SMILES
125 | Cc1c(C(=O)NCCN2CCCCC2)cc(-c2ccc3ccccc3c2)n1-c1ccc(S(N)(=O)=O)cc1
207 | Cc1c(C(=O)NCCN2CCN(C)CC2)cc(-c2ccc(-c3ccccc3)cc2)n1-c1ccc(S(N)(=O)=O)cc1
135 | Cc1c(C(=O)N2CCN(C)CC2)cc(-c2ccccc2)n1-c1ccc(S(N)(=O)=O)cc1
111 | Cc1c(C(=O)NCCCN(C)C)cc(-c2ccc(-c3ccccc3)cc2)n1-c1ccc(S(N)(=O)=O)cc1
153 | Cc1c(C(=O)NCCN2CCCC2)cc(-c2ccc(-c3ccccc3)cc2)n1-c1ccc(S(N)(=O)=O)cc1
68 | Cc1c(C(=O)N2CCN(C)CC2)cc(-c2ccc(-c3ccccc3)cc2)n1-c1ccc(S(N)(=O)=O)cc1
198 | Cc1c(C(=O)NCCCN2CCN(C)CC2)cc(-c2ccc(-c3ccccc3)cc2)n1-c1ccc(S(N)(=O)=O)cc1
101 | Cc1c(C(=O)NCCCN2CCOCC2)cc(-c2ccc(-c3ccccc3)cc2)n1-c1ccc(S(N)(=O)=O)cc1
126 | Cc1c(C(=O)NCCN2CCN(C)CC2)cc(-c2ccc3ccccc3c2)n1-c1ccc(S(N)(=O)=O)cc1
200 | Cc1c(C(=O)NCCN2CCOCC2)cc(-c2ccccc2)n1-c1ccc(S(N)(=O)=O)cc1

The remaining lines, values behind:

SMILES | Ki [nM]
Cc1c(C(=O)NCCCN2CCN(C)CC2)cc(-c2ccc3ccccc3c2)n1-c1ccc(S(N)(=O)=O)cc1 | 147
Cc1c(C(=O)NCCCN(C)C)cc(-c2ccccc2)n1-c1ccc(S(N)(=O)=O)cc1 | 131
Cc1c(C(=O)NCCN2CCCC2)cc(-c2ccc3ccccc3c2)n1-c1ccc(S(N)(=O)=O)cc1 | 30
Cc1c(C(=O)NCCN2CCOCC2)cc(-c2ccc3ccccc3c2)n1-c1ccc(S(N)(=O)=O)cc1 | 22
Cc1c(C(=O)NCCN(C)C)cc(-c2ccc3ccccc3c2)n1-c1ccc(S(N)(=O)=O)cc1 | 10
Cc1c(C(=O)NCCN2CCOCC2)cc(-c2ccc(-c3ccccc3)cc2)n1-c1ccc(S(N)(=O)=O)cc1 | 187
Cc1c(C(=O)NCCCN2CCOCC2)cc(-c2ccc3ccccc3c2)n1-c1ccc(S(N)(=O)=O)cc1 | 137
Cc1c(C(=O)NCCN2CCCCC2)cc(-c2ccc(-c3ccccc3)cc2)n1-c1ccc(S(N)(=O)=O)cc1 | 167
Cc1c(C(=O)NCCCN(C)C)cc(-c2ccc3ccccc3c2)n1-c1ccc(S(N)(=O)=O)cc1 | 11
Cc1c(C(=O)NCCN2CCCCC2)cc(-c2ccccc2)n1-c1ccc(S(N)(=O)=O)cc1 | 89
Cc1c(C(=O)NCCN(C)C)cc(-c2ccccc2)n1-c1ccc(S(N)(=O)=O)cc1 | 242
